According to patent US7410974B2, “Halogenated Quinazolinyl nitrofurans as antibacterial agents” (Ulysses Pharmaceutical Products, Inc., priority 2003, dated 2008):
Converted amounts (≈) assume the structure as drawn. Read-outs that look alike come from different tables or passages of the source.

What was measured:
S. aureus ATCC 29213 = test: MIC broth microdilution (NCCLS); format: cell-based, Staphylococcus aureus
Procedure: (§1) Minimal Inhibitory Concentration (MIC) Determination. Bacteria (primary strain panel, TABLE 1). Susceptibility tests were performed following the recommendations from the National Committee for Clinical Standards (NCCLS). The MICs were determined by a broth microdilution technique using a final volume of 100 μl of cation-adjusted Mueller Hinton Broth (MHBCA) and a bacterial inoculum of 10^5-10^6 Colony Forming Units (CFU)/ml. The inocula were verified and precisely determined by applying 10-μl drops of 10-fold dilutions onto Triptic Soy Agar plates. The CFU were counted after an incubation of 24 h at 35° C. Any experiment showing an inoculum that was more or less than 10^5-10^6 CFU/ml was rejected. Control antibiotics and test compounds were prepared at a concentration equivalent to 2-fold the highest desired final concentration. Compounds were then diluted directly in the 96-well microtiter plates by serial 2-fold dilutions using a multichannel pipette. Microtiter plates were incubated during 24 h at 35° C. and growth was recorded by using a microtiterplate reader at 650 nm as well as by visual observation. The MIC was defined as the lowest concentration of compound yielding no visible growth. […] Fastidious bacteria. The medium used for Listeria monocytogenes, Neisseria meningitidis, and Campylobacter jejuni was MHBCA containing 2% laked horse blood. The medium used for Haemophilus influenzae and Branhamella (Moraxella) catarrhalis was HTM as recommended by the NCCLS. Cultures of these fastidious bacteria were incubated at 35° C. in a 5% CO2 atmosphere. […] The medium used for Bacteroides fragilis was Wilkins Chalgren broth and growth was allowed under an anaerobic atmosphere at 35° C. for 48 hours.

S. aureus MRSA COL = test: MIC broth microdilution (NCCLS); format: cell-based, Staphylococcus aureus
Procedure: as §1, with “hours. […]” for “hours.”

[1] = tested on: S. epidermidis ATCC 12228; test: MIC broth microdilution (NCCLS); format: cell-based, Staphylococcus epidermidis
Procedure: as §1

[2] = tested on: S. saprophyticus ATCC 15305; test: MIC broth microdilution (NCCLS); format: cell-based, Staphylococcus saprophyticus
Procedure: as §1

E. faecalis ATCC 29212 = test: MIC broth microdilution (NCCLS); format: cell-based, Enterococcus faecalis
Procedure: as §1

E. faecium ATCC 35667 = test: MIC broth microdilution (NCCLS); format: cell-based, Enterococcus faecium
Procedure: as §1

E. coli ATCC 25922 = test: MIC broth microdilution (NCCLS); format: cell-based, Escherichia coli
Procedure: as §1

A. baumannii ATCC 19606 = test: MIC broth microdilution (NCCLS); format: cell-based, Acinetobacter baumannii
Procedure: as §1

[3] = tested on: Y. enterocolytica ATCC 23715; test: MIC broth microdilution (NCCLS); format: cell-based, Yersinia enterocolytica
Procedure: as §1

MRSA strain Sa211c = test: MIC broth microdilution, antibiotic resistant strain panel; format: cell-based, Staphylococcus aureus; settings: multi-resistant MRSA strain Sa211c
Procedure: as §1
(§2) Finally, compounds were also tested against populations of various clinical strains (antibiotic resistant strain panel, TABLE 1).

MRSA strain Sa212c = test: as above; format: cell-based, Staphylococcus aureus; settings: multi-resistant MRSA strain Sa212c
Procedure: as §1, §2

MRSA strain Sa220c = test: as above; format: cell-based, Staphylococcus aureus; settings: multi-resistant MRSA strain Sa220c
Procedure: as §1, §2

MRSA strain Sa224c = test: as above; format: cell-based, Staphylococcus aureus; settings: multi-resistant MRSA strain Sa224c
Procedure: as §1, §2

MRSA strain Sa228c = test: as above; format: cell-based, Staphylococcus aureus; settings: multi-resistant MRSA strain Sa228c
Procedure: as §1, §2

MRSA strain Sa234c = test: as above; format: cell-based, Staphylococcus aureus; settings: multi-resistant MRSA strain Sa234c
Procedure: as §1, §2

MRSA strain Sa248c = test: as above; format: cell-based, Staphylococcus aureus; settings: multi-resistant MRSA strain Sa248c
Procedure: as §1, §2

MRSA strain Sa249c = test: as above; format: cell-based, Staphylococcus aureus; settings: multi-resistant MRSA strain Sa249c
Procedure: as §1, §2

MRSA strain Sa253c = test: as above; format: cell-based, Staphylococcus aureus; settings: multi-resistant MRSA strain Sa253c
Procedure: as §1, §2

E. faecium VanA = test: as above; format: cell-based; settings: Enterococcus faecium
Procedure: as §1, §2

[4] = tested on: S. saprophyticus ATCC 15305; test: Minimal Bactericidal Concentration (MBC); format: cell-based; settings: Staphylococcus saprophyticus, ATCC15305
Procedure: Minimal Bactericidal Concentration (MBC). After the microtiter plates were read for the determination of the MIC, a 10-μl sample of each clear well (at least 5 wells without visible growth) was applied onto TSA plates for viable counts determination.
Petri dishes were incubated at 35° C. for exactly 24 h and bacterial colonies were counted.

[5] = Staphylococcus aureus, ATCC29213, S. aureus ATCC 29213, read-out: MIC
[6] = Staphylococcus aureus, MRSA, S. aureus MRSA COL, read-out: MIC
[7] = Staphylococcus epidermidis, ATCC12228, S. epidermidis ATCC 12228, read-out: MIC
[8] = Staphylococcus saprophyticus, ATCC15305, S. saprophyticus ATCC 15305, read-out: MIC
[9] = Enterococcus faecalis, ATCC29212, E. faecalis ATCC 29212, read-out: MIC
[10] = Enterococcus faecium, ATCC35667, E. faecium ATCC 35667, read-out: MIC
[11] = Staphylococcus aureus, read-out: MIC

## Gentamicin
S. aureus ATCC 29213; S. aureus ATCC 29213
  MIC: 0.5 to 2 µg/mL
S. aureus MRSA COL; S. aureus MRSA COL
  MIC: 0.5 µg/mL
[1]; S. epidermidis ATCC 12228
  MIC: 0.06 to 0.25 µg/mL
[2]; S. saprophyticus ATCC 15305
  MIC: 0.06 µg/mL
E. faecalis ATCC 29212; E. faecalis ATCC 29212
  MIC: 4 to 16 µg/mL
E. faecium ATCC 35667; E. faecium ATCC 35667
  MIC: 4 to 16 µg/mL
E. coli ATCC 25922; E. coli ATCC 25922 (Reference)
  MIC: 0.5 to 2 µg/mL
A. baumannii ATCC 19606
  MIC: 32 µg/mL
[3]
  MIC: 2 µg/mL
MRSA strain Sa211c
  MIC: 1 µg/mL
MRSA strain Sa212c
  MIC: 0.25 µg/mL
MRSA strain Sa220c
  MIC: 0.5 µg/mL
MRSA strain Sa224c
  MIC: 0.25 µg/mL
MRSA strain Sa228c
  MIC: 32 µg/mL
MRSA strain Sa234c
  MIC: 1 µg/mL
MRSA strain Sa248c
  MIC: >128 µg/mL
MRSA strain Sa249c
  MIC: >128 µg/mL
MRSA strain Sa253c
  MIC: >128 µg/mL

## Cc1onc(-c2ccccc2)c1C(=O)N[C@@H]1C(=O)N2[C@@H]1SC(C)(C)[C@@H]2C(=O)O [Oxacillin]
S. aureus ATCC 29213; [5]
  MIC: 0.12 to 0.25 µg/mL (≈ 0.299 to 0.623 µM)
S. aureus MRSA COL; Staphylococcus aureus, MRSA
  MIC: > 128 µg/mL
S. aureus MRSA COL; [6]
  MIC: 512 µg/mL (≈ 1280 µM)
[1]; [7]
  MIC: 0.12 µg/mL (≈ 0.299 µM)
[2]; [8]
  MIC: 1 µg/mL (≈ 2.49 µM)
E. faecalis ATCC 29212; [9]
  MIC: 8 to 16 µg/mL (≈ 19.9 to 39.9 µM)
E. faecium ATCC 35667; [10]
  MIC: 32 µg/mL (≈ 79.7 µM)
MRSA strain Sa211c; [11]
  MIC: 16 to 32 µg/mL (≈ 39.9 to 79.7 µM)
MRSA strain Sa212c; [11]
  MIC: 16 µg/mL (≈ 39.9 µM)
MRSA strain Sa220c; [11]
  MIC: 8 to 16 µg/mL (≈ 19.9 to 39.9 µM)
MRSA strain Sa224c; [11]
  MIC: 32 to 64 µg/mL (≈ 79.7 to 159 µM)
MRSA strain Sa228c; [11]
  MIC: 128 µg/mL (≈ 319 µM)
MRSA strain Sa248c; [11]
  MIC: 512 µg/mL (≈ 1280 µM)
MRSA strain Sa249c; [11]
  MIC: 512 µg/mL (≈ 1280 µM)
MRSA strain Sa253c; [11]
  MIC: 1020 µg/mL (≈ 2550 µM)

## CO/N=C(\C(=O)N[C@@H]1C(=O)N2C(C(=O)O)=C(CSc3nc(=O)c(=O)[nH]n3C)CS[C@H]12)c1csc(N)n1 [Ceftriaxone]
S. aureus ATCC 29213; [5]
  MIC: 2 µg/mL (≈ 3.61 µM)
S. aureus MRSA COL; [6]
  MIC: 512 µg/mL (≈ 923 µM)
[1]; [7]
  MIC: 1 µg/mL (≈ 1.8 µM)
[2]; [8]
  MIC: 8 µg/mL (≈ 14.4 µM)
E. faecalis ATCC 29212; [9]
  MIC: 8 µg/mL (≈ 14.4 µM)
E. faecium ATCC 35667; [10]
  MIC: 64 µg/mL (≈ 115 µM)
E. coli ATCC 25922; Escherichia coli, ATCC25922, E. coli ATCC 25922 (Reference), read-out: MIC
  MIC: 0.03 to 0.06 µg/mL (≈ 0.0541 to 0.108 µM)

## CN[C@H](CC(C)C)C(=O)N[C@H]1C(=O)N[C@@H](CC(N)=O)C(=O)N[C@H]2C(=O)N[C@H]3C(=O)N[C@H](C(=O)N[C@H](C(=O)O)c4cc(O)cc(O)c4-c4cc3ccc4O)[C@H](O)c3ccc(c(Cl)c3)Oc3cc2cc(c3O[C@@H]2O[C@H](CO)[C@@H](O)[C@H](O)[C@H]2O[C@H]2C[C@](C)(N)[C@H](O)[C@H](C)O2)Oc2ccc(cc2Cl)[C@H]1O [Vancomycin]
S. aureus ATCC 29213; Staphylococcus aureus, ATCC29213
  MIC: 0.5 to 2 µg/mL (≈ 0.345 to 1.38 µM)
S. aureus MRSA COL; Staphylococcus aureus, MRSA
  MIC: 1 to 2 µg/mL (≈ 0.69 to 1.38 µM)
[1]; Staphylococcus epidermidis, ATCC12228
  MIC: 1 to 2 µg/mL (≈ 0.69 to 1.38 µM)
[2]; Staphylococcus saprophyticus, ATCC15305
  MIC: 1 µg/mL (≈ 0.69 µM)
E. faecalis ATCC 29212; Enterococcus faecalis, ATCC29212
  MIC: 2 µg/mL (≈ 1.38 µM)
E. faecium ATCC 35667; Enterococcus faecium, ATCC35667
  MIC: 0.5 µg/mL (≈ 0.345 µM)
E. faecium VanA
  MIC: > 128 µg/mL
[4]
  MBC: 1 µg/mL (≈ 0.69 µM)
